Reference: patent US6867218B2, “Compounds, their preparation and use” (Novo Nordisk A/S, priority 2000, dated 2005)

Key:
human PPAR α = target: T1, human PPAR α (Homo sapiens, UniProt Q07869); experiment: In vitro PPAR alpha transactivation assay (GAL4-DBD/PPAR-LBD, luciferase reporter, HEK293); assay type: cell-based; settings: for In vitro activation PPAR α % max: fold activation relative to maximum activation obtained with Wy14643 (approx. 20 fold corresponded to 100%); for EC50: transfected HEK293 cells, 24 h compound, five concentrations 0.01 to 30 μM, at least three experiments, means, read-out: In vitro activation PPAR α EC50
T1 construct: expressed in transfected cells; host or cells: HEK293
T1 sequence (Q07869 167-468 limits assumed): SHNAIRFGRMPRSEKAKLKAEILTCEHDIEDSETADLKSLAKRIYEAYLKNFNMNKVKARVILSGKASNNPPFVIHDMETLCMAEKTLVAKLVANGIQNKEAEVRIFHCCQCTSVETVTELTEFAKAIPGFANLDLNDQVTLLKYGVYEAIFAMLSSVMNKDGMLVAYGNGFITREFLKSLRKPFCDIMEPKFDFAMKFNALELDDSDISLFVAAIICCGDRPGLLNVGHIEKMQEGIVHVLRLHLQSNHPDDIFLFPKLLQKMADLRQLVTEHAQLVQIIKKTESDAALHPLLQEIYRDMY
Description: (§1) In Vitro PPAR Alpha and PPAR Gamma Activation Activity.
(§2) The PPAR gene transcription activation assays were based on transient transfection into human HEK293 cells of two plasmids encoding a chimeric test protein and a reporter protein respectively. The chimeric test protein was a fusion of the DNA binding domain (DBD) from the yeast GAL4 transcription factor to the ligand binding domain (LBD) of the human PPAR proteins. The PPAR LBD harbored in addition to the ligand binding pocket also the native activation domain (activating function 2=AF2) allowing the fusion protein to function as a PPAR ligand dependent transcription factor. The GAL4 DBD will force the fusion protein to bind only to Gal4 enhancers (of which none existed in HEK293 cells). The reporter plasmid contained a Gal4 enhancer driving the expression of the firefly luciferase protein. After transfection, HEK293 cells expressed the GAL4-DBD-PPAR-LBD fusion protein. The fusion protein will in turn bind to the Gal4 enhancer controlling the luciferase expression, and do nothing in the absence of ligand. Upon addition to the cells of a PPAR ligand, luciferase protein will be produced in amounts corresponding to the activation of the PPAR protein. The amount of luciferase protein is measured by light emission after addition of the appropriate substrate.
(§3) Cell culture and transfection: HEK293 cells were grown in DMEM+10% FCS. Cells were seeded in 96-well plates the day before transfection to give a confluency of 50-80% at transfection. A total of […] DNA containing 0.64 μg pM1α/γLBD, 0.1 μg pCMVβGal, 0.08 μg pGL2Gal4DBD and 0.02 μg p[…] was transfected per well using FuGene transfection reagent according to the manufacturers instructions (Roche). Cells were allowed to express protein for 48 h followed by addition of compound.
Plasmids: Human PPAR α and γ was obtained by PCR amplification using cDNA synthesized by reverse transcription of mRNA from liver and adipose tissue respectively. Amplified cDNAs were cloned into pCR2.1 and sequenced. The ligand binding domain (LBD) of each PPAR isoform was generated by PCR (PPARα: aa 167—C-terminus; PPARγ: aa 165—C-terminus) and fused to the DNA binding domain (DBD) of the yeast transcription factor GAL4 by subcloning fragments in frame into the vector pM1 generating the plasmids pM1αLBD and pM1γLBD. Ensuing fusions were verified by sequencing. The reporter was constructed by inserting an oligonucleotide encoding five repeats of the GAL4 recognition sequence (5×[…](AG)) into the vector pGL2 promotor (Promega) generating the plasmid pGL2(GAL4)5. pCMVβGal was purchased from Clontech and p[…] was purchased from Promega.
(§4) Luciferase assay: Medium including test compound was aspirated and 100 μl PBS incl. 1 mM Mg++ and Ca++ was added to each well. The luciferase assay was performed using the Lu-cLite kit according to the manufacturers instructions (Packard Instruments). Light emission was quantified by counting SPC mode on a Packard Instruments top-counter. To measure β-galactosidase activity 25 μl supernatant from each transfection lysate was transferred to a new microplate. β-galactosidase assays were performed in the microwell plates using a kit from Promega and read in a microplate reader. The β-galactosidase data were used to normalize (transfection efficiency, cell growth etc.) the luciferase data.
(§5) Compounds: All compounds were dissolved in DMSO and diluted 1:1000 upon addition to the cells. Compounds were tested in quadruple in five concentrations ranging form 0.01 to 30 μM. Cells were treated with compound for 24 h followed by luciferase assay. Each compound was tested in three separate experiments. EC50 values were calculated via non-linear regression using GraphPad PRISM 3.02 (GraphPad Software, San Diego, Calif.). The results were expressed as means.

human PPAR γ = target: T2, human PPAR γ (Homo sapiens, UniProt P37231); experiment: In vitro PPAR gamma transactivation assay (GAL4-DBD/PPAR-LBD, luciferase reporter, HEK293); assay type: cell-based; settings: for In vitro activation PPAR γ % max: fold activation relative to maximum activation obtained with rosiglitazone (approx. […] fold corresponded to 100%); for EC50: transfected HEK293 cells, 24 h compound, five concentrations 0.01 to 30 μM, at least three experiments, means, read-out: In vitro activation PPAR γ EC50
T2 construct: PPARγ: aa 165—C-terminus); expressed in transfected cells; host or cells: HEK293
T2 sequence (P37231 238-503 limits assumed): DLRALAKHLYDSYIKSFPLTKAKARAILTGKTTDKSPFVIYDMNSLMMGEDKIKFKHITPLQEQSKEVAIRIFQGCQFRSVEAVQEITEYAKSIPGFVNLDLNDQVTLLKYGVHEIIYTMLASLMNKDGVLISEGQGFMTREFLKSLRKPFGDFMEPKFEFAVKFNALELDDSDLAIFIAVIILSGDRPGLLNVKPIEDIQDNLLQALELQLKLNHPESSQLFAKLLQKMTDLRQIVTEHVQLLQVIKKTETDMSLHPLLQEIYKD
Description: as §1, §2, §3
Plasmids: Human PPAR α and γ was obtained by PCR amplification using cDNA synthesized by reverse transcription of mRNA from liver and adipose tissue respectively. Amplified cDNAs were cloned into pCR2.1 and sequenced. The ligand binding domain (LBD) of each PPAR isoform was generated by PCR (PPARα: aa 167—C-terminus; PPARγ: aa 165—C-terminus) and fused to the DNA binding domain (DBD) of the yeast transcription factor GAL4 by subcloning fragments in frame into the vector pM1 generating the plasmids pM1αLBD and pM1γLBD. Ensuing fusions were verified by sequencing.
as §4, §5

Compound: C/C(=C\COc1ccc(CC(OCCCc2ccccc2)C(=O)O)cc1)c1ccc(-c2ccccc2)cc1 (racemic) [Example 140, (E)-(S/R)-3-[4-(3-Biphenyl-4-yl-but-2-enyloxy)-phenyl]-2-(3-phenyl-propoxy)-propionic acid]
- melting point: 115 to 117 °C

Compound: C/C(=C\COc1ccc(CC(OC(C)C)C(=O)O)cc1)c1ccc(-c2ccccc2)cc1 (racemic) [Example 134, (E)-(S/R)-3-[4-(3-Biphenyl-4-yl-but-2-enyloxy)-phenyl]-2-isopropoxy-propionic acid]
- In vitro activation PPAR α % max (human PPAR α): 122%
- EC50 (human PPAR α): 2900 nM
- In vitro activation PPAR γ % max (human PPAR γ): 155%
- EC50 (human PPAR γ): 890 nM
- melting point: 125 to 127.5 °C

Compound: CCCCCCOC(Cc1ccc(OC/C=C(\C)c2ccc(-c3ccccc3)cc2)cc1)C(=O)O (racemic) [Example 138, (E)-(S/R)-3-[4-(3-Biphenyl-4-yl-but-2-enyloxy)-phenyl]-2-hexyloxy-propionic acid]
- melting point: 117 to 119 °C

Compound: CCOC(=O)[C@H](Cc1ccc(OC/C=C/c2cc3ccccc3o2)cc1)OCC [Example 27]
- In vitro activation PPAR α % max (human PPAR α): 185%
- EC50 (human PPAR α): 100 nM
- In vitro activation PPAR γ % max (human PPAR γ): 99%
- EC50 (human PPAR γ): 110 nM

Compound: CCO[C@@H](Cc1ccc(OC/C=C(\C)c2ccc(-c3cc(Cl)ccc3OC)cc2)cc1)C(=O)O [Example 57, (E)-(S)-3-{4-[3-(5′-Chloro-2′-methoxy-biphenyl-4-yl)-but-2-enyloxy]-phenyl}-2-ethoxy-propionic acid]
- In vitro activation PPAR α % max (human PPAR α): 178%
- EC50 (human PPAR α): 380 nM
- In vitro activation PPAR γ % max (human PPAR γ): 110%
- EC50 (human PPAR γ): 700 nM

Compound: CCO[C@@H](Cc1ccc(OC/C=C(\C)c2ccc(-c3ccc(Br)cc3)cc2)cc1)C(=O)O [Example 4, (E)-(S)-3-{4-[3-(4′-Bromo-biphenyl-4-yl)-but-2-enyloxy]-phenyl}-2-ethoxy-propionic acid]
- In vitro activation PPAR α % max (human PPAR α): 212%
- EC50 (human PPAR α): 3100 nM
- In vitro activation PPAR γ % max (human PPAR γ): 156%
- EC50 (human PPAR γ): 720 nM

Compound: CCCCOC(Cc1ccc(OC/C=C(\C)c2ccc(-c3ccccc3)cc2)cc1)C(=O)OCC (racemic) [Example 135, (E)-(S/R)-Ethyl 3-[4-(3-Biphenyl-4-yl-but-2-enyloxy)-phenyl]-2-butoxy-propionate]
- melting point: 62 to 63.5 °C

Compound: CCOC(=O)[C@H](Cc1ccc(OC/C=C(\C)c2ccc3c(c2)Cc2ccccc2-3)cc1)OCC [Example 9, (E)-(S)-2-Ethoxy-3-{4-[3-(9H-fluoren-2-yl)-but-2-enyloxy]-phenyl}-propionic acid ethyl ester]
- In vitro activation PPAR α % max (human PPAR α): 234%
- EC50 (human PPAR α): 38 nM
- In vitro activation PPAR γ % max (human PPAR γ): 125%
- EC50 (human PPAR γ): 350 nM

Compound: CCOC(=O)C(Cc1ccc(OC/C=C(\C)c2ccc(-c3ccccc3)cc2)cc1)OC(C)C (racemic) [Example 133, (E)-(S/R)-Ethyl 3-[4-(3-Biphenyl-4-yl-but-2-enyloxy)-phenyl]-2-isopropoxy-propionate]
- melting point: 79 to 81 °C

Compound: CCO[C@@H](Cc1ccc(OC/C=C(\C)c2ccc(-c3cc(Br)cc(Br)c3)cc2)cc1)C(=O)O [Example 124, (E)-(S)-3-{4-[3-(3′,5′-Dibromo-biphenyl-4-yl)-but-2-enyloxy]-phenyl}-2-ethoxy-propionic acid]
- In vitro activation PPAR α % max (human PPAR α): 102%
- EC50 (human PPAR α): 350 nM
- In vitro activation PPAR γ % max (human PPAR γ): 83%
- EC50 (human PPAR γ): 300 nM

Compound: CCOC(=O)[C@H](Cc1ccc(OC/C=C(\C)c2ccc(-c3ccc(C(C)C)cc3)cc2)cc1)OCC [Example 103, (E)-(S)-Ethyl 2-Ethoxy-3-{4-[3-(4′-isopropyl-biphenyl-4-yl)-but-2-enyloxy]-phenyl}-propionate]
- melting point: 70 to 73 °C
